Target: T1, human vasopressin V2 receptor subtype (Homo sapiens, UniProt P30518)
T1 construct: host or cells: CHO cells, stably transfected (pZeoSV vector)
Assay: Vasopressin binding in CHO cell membranes expressing human vasopressin V2 subtype receptors ([3H]arginine vasopressin radioligand binding)
Conditions: 100 nM
Description: Vasopressin Binding in Chinese Hamster Ovary Cell Membranes Expressing Human Vasopressin V2 Subtype Receptors
Chinese Hamster Ovary (CHO) cells stably transfected with the human V2 subtype receptors were obtained from M. Thibonnier, Case Western Reserve University School of Medicine, Cleveland, Ohio.
The trypsin is removed by aspiration and the cells dislodged by tapping. Cell Culture medium (e.g. 30 mL for 1:30 split) is immediately added and mixed well to inactivate trypsin. 1 mL of detached cells is added to new culture flasks containing fresh Cell Culture medium (e.g. into 25 mL per T-150 flask), and mixed gently. The cells are incubated at 37° C. in 5% CO2. The medium is changed at 3 to 4 day interval (or as appropriate). […] All steps are done under sterile conditions.
The cells are washed twice gently with Hank's Balanced Salt solution (e.g. use 10 mL per T-150 flask). […] The contents are transferred to centrifuge tubes (50 mL) kept in ice bath. All subsequent steps are done at 4° C. The tubes are centrifuged at 300×g for 15 min (1380 rpm on SORVAL, Model RT6000D, using the rotor for 50 mL tubes). The supernatant is discarded and the cells suspended in homogenizing buffer(10 mM Tris-HCl containing 0.25 M sucrose and 1 mM EDTA, pH 7.4) ensuring that the volume of the buffer is about ten times the volume of the cell pellet. The cells are pooled into a centrifuge tube (50 mL) and homogenized with Polytron at setting 6 for 10 sec. The homogenate is transferred into a Potter-Elvjehm homogenizer and homogenized with 3 strokes. The homogenate is centrifuged at 1500×g for 60 min at 4° C. (3100 rpm using SORVAL, model RT6000D, using the rotor for 50 mL tubes). The pellet is discarded. The supernatant is centrifuged at 100,000×g for 60 min. at 4° C. (Beckman L8-80M ultracentrifuge; spin at 37,500 rpm with rotor type 70 Ti for 50 mL tubes; 38,000 rpm with type 80Ti for 15 mL tubes; or 35,800 rpm with rotor type 45Ti). The supernantant is discarded and the pellet suspended in 3 to 4 mL of Tris buffer (50 mM TRIS-HCl, pH 7.4). The protein content is estimated by the Bradford or Lowry method. The volume of the membrane suspension is adjusted with the membrane buffer (50 mM Tris-HCl containing 0.1% BSA and 0.1 mM PMSF) to give 3.0 mg/mL (or as appropriate) of protein. The membranes are aliquoted and stored at −70° C.
In wells of a 96-well format microtiter plate, is added 90, 110 or 130 μL (to make up a final volume of 200 μL) of assay buffer containing 50 mM of Tris-HCl (pH 7.4), […], 1 mg % aprotinin, 1 mg % leupeptin, 2 mg % 1,10-phenanthroline, 10 mg % trypsin inhibitor, and 0.1 mM PMSF. The inhibitors are added on the day of the experiment. The components are mixed at room temperature, and then kept in ice bath following adjustment of the pH to 7.4. […] For vasopressin and other peptide ligands 20 μL of 50% DMSO is added and the assay buffer volume is adjusted accordingly. To each well is added 50 μL of frozen membrane suspension thawed immediately prior to use and diluted in assay buffer to the required concentration (equivalent to 25 to 50 μg of protein/well as needed). 20 μL of 8 nM [^3H]arginine vasopressin ligand in the assay buffer, prepared just before use is added and incubated at room temperature for 60 min. shaking the plate on a mechanical shaker for the first 15 min. The incubation is stopped by rapid filtration of the plate contents followed by wash with ice-cold buffer (50 mM Tris-HCl, pH 7.4) using a cell harvester (Tomtek and Printed filtermat-B filter paper). The filter paper is thoroughly dried (7–12 min. in a microwave oven) and impregnated with MeltiLex B/H melt-on scintillation wax sheets and the radioactivity counted in a betaplate scintillation counter.
Binding data is either reported as percent inhibition at a certain concentration or if an IC50 was calculated, as a nanomolar concentration.

T1 sequence (P30518 whole entry): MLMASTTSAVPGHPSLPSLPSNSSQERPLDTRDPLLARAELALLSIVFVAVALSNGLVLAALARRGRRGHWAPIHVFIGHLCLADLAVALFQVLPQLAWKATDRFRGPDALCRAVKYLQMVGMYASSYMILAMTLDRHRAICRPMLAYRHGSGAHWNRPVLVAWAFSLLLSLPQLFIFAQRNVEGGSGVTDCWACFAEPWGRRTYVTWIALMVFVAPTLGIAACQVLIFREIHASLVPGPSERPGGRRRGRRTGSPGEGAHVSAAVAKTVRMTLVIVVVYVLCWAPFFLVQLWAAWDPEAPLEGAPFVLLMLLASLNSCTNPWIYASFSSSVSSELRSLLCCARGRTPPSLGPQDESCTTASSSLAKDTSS

| SMILES | inhibition at 0.1 µM [%] | V2 % inhibition @ 100 nM [%] |
| --- | --- | --- |
| COc1cc(C(=O)N2Cc3ccc(C(=O)N(C)Cc4cccnc4)n3Cc3ccccc32)ccc1-c1ccccc1C [Example 106, 10-[(2-Methoxy-2′-methyl-[1,1′-biphenyl]-4-yl)carbonyl]-N-methyl-N-(3-pyridinylmethyl)-10,11-dihydro-5H-pyrrolo[2,1-c][1,4]benzodiazepine-3-carboxamide] | -10 |  |
| COc1cc(-c2ccccc2C)c(Cl)cc1C(=O)N1Cc2ccc(C(=O)N(C)Cc3cccnc3)n2Cc2ccccc21 [Example 107, 10-[(6-Chloro-3-methoxy-2′-methyl-[1,1′-biphenyl]-4-yl)carbonyl]-N-methyl-N-(3-pyridinylmethyl)-10,11-dihydro-5H-pyrrolo[2,1-c][1,4]benzodiazepine-3-carboxamide] | 30 |  |
| COc1cccc(-c2cc(OC)c(C(=O)N3Cc4ccc(C(=O)N(C)Cc5cccnc5)n4Cc4ccccc43)cc2Cl)c1 [Example 108, 10-[(6-Chloro-3,3′-dimethoxy-[1,1′-biphenyl]-4-yl)carbonyl]-N-methyl-N-(3-pyridinylmethyl)-10,11-dihydro-5H-pyrrolo[2,1-c][1,4]benzodiazepine-3-carboxamide] | 24 |  |
| COc1cc(C(=O)N2Cc3ccc(C(=O)N(C)Cc4cccnc4)n3Cc3ccccc32)ccc1-c1cccc2ccccc12 [Example 109, 10-[3-Methoxy-4-(naphthalen-1-yl)benzoyl]-N-methyl-N-(3-pyridinylmethyl)-10,11-dihydro-5H-pyrrolo[2,1-c][1,4]benzodiazepine-3-carboxamide] | 0 |  |
| COc1cccc(-c2ccc(C(=O)N3Cc4ccc(C(=O)N(C)Cc5cccnc5)n4Cc4ccccc43)cc2OC)c1 [Example 110] |  | 32 |
| CN(Cc1cccnc1)C(=O)c1ccc2n1Cc1ccccc1N(C(=O)c1ccc(-c3cccc4ccccc34)cc1Cl)C2 [Example 111, 10-[2-Chloro-4-(naphthalen-1-yl)benzoyl]-N-methyl-N-(3-pyridinylmethyl)-10,11-dihydro-5H-pyrrolo[2,1-c][1,4]benzodiazepine-3-carboxamide] | 23 |  |
| Cc1ccccc1-c1ccc(C(=O)N2Cc3ccc(C(=O)N4CCN(c5ccncc5)CC4)n3Cc3ccccc32)cc1C [Example 114, {10-[(2,2′-Dimethyl-[1,1′-biphenyl]-4-yl)carbonyl]-10,11-dihydro-5H-pyrrolo[2,1-c][1,4]benzodiazepin-3-yl}[4-(4-pyridinyl)-1-piperazinyl]methanone] | 18 |  |
| COc1cccc(-c2ccc(C(=O)N3Cc4ccc(C(=O)N5CCN(c6ccncc6)CC5)n4Cc4ccccc43)cc2C)c1 [Example 115, {10-[(3′-Methoxy-2-methyl-[1,1′-biphenyl]-4-yl)carbonyl]-10,11-dihydro-5H-pyrrolo[2,1-c][1,4]benzodiazepin-3-yl}[4-(4-pyridinyl)-1-piperazinyl]methanone] | 8 |  |
| COc1ccccc1-c1ccc(C(=O)N2Cc3ccc(C(=O)N4CCN(c5ccncc5)CC4)n3Cc3ccccc32)cc1 [Example 116, {10-[(2′-Methoxy-[1,1′-biphenyl]-4-yl)carbonyl]-10,11-dihydro-5H-pyrrolo[2,1-c][1,4]benzodiazepin-3-yl}[4-(4-pyridinyl)-1-piperazinyl]methanone] | 63 |  |
| Cc1ccccc1-c1ccc(C(=O)N2Cc3ccc(C(=O)N4CCN(c5ccncc5)CC4)n3Cc3ccccc32)cc1 [Example 117, {10-[(2′-Methyl-[1,1′-biphenyl]-4-yl)carbonyl]-10,11-dihydro-5H-pyrrolo[2,1-c][1,4]benzodiazepin-3-yl}[4-(4-pyridinyl)-1-piperazinyl]methanone] | 4 |  |
| COc1cc(C(=O)N2Cc3ccc(C(=O)N4CCN(c5ccncc5)CC4)n3Cc3ccccc32)ccc1-c1ccccc1C [Example 118] |  | −10 |
| COc1cc(-c2ccccc2C)c(Cl)cc1C(=O)N1Cc2ccc(C(=O)N3CCN(c4ccncc4)CC3)n2Cc2ccccc21 [Example 119, {10-[(6-Chloro-3-methoxy-2′-methyl-[1,1′-biphenyl]-4-yl)carbonyl]-10,11-dihydro-5H-pyrrolo[2,1-c][1,4]benzodiazepin-3-yl}[4-(4-pyridinyl)-1-piperazinyl]methanone] | 17 |  |
| COc1cccc(-c2cc(OC)c(C(=O)N3Cc4ccc(C(=O)N5CCN(c6ccncc6)CC5)n4Cc4ccccc43)cc2Cl)c1 [Example 120, {10-[(6-Chloro-3,3′-dimethoxy-[1,1′-biphenyl]-4-yl)carbonyl]-10,11-dihydro-5H-pyrrolo[2,1-c][1,4]benzodiazepin-3-yl}[4-(4-pyridinyl)-1-piperazinyl]methanone] | 16 |  |
| COc1cc(C(=O)N2Cc3ccc(C(=O)N4CCN(c5ccncc5)CC4)n3Cc3ccccc32)ccc1-c1cccc2ccccc12 [Example 121, {10-[3-Methoxy-4-(naphthalen-1-yl)benzoyl]-10,11-dihydro-5H-pyrrolo[2,1-c][1,4]benzodiazepin-3-yl}[4-(4-pyridinyl)-1-piperazinyl]methanone] | -4 |  |
| COc1ccccc1-c1ccc(C(=O)N2Cc3ccc(C(=O)N4CCN(c5ccncc5)CC4)n3Cc3ccccc32)cc1OC [Example 122, {10-[(2,2′-Dimethoxy-[1,1′-biphenyl]-4-yl)carbonyl]-10,11-dihydro-5H-pyrrolo[2,1-c][1,4]benzodiazepin-3-yl}[4-(4-pyridinyl)-1-piperazinyl]methanone] | -10 |  |
| COc1cccc(-c2ccc(C(=O)N3Cc4ccc(C(=O)N5CCN(c6ccncc6)CC5)n4Cc4ccccc43)cc2OC)c1 [Example 123, {10-[(2,3′-Dimethoxy-[1,1′-biphenyl]-4-yl)carbonyl]-10,11-dihydro-5H-pyrrolo[2,1-c][1,4]benzodiazepin-3-yl}[4-(4-pyridinyl)-1-piperazinyl]methanone] | 30 |  |
| O=C(c1ccc2n1Cc1ccccc1N(C(=O)c1ccc(-c3cccc4ccccc34)cc1Cl)C2)N1CCN(c2ccncc2)CC1 [Example 124, {10-[2-Chloro-4-(naphthalen-1-yl)benzoyl]-10,11-dihydro-5H-pyrrolo[2,1-c][1,4]benzodiazepin-3-yl}[4-(4-pyridinyl)-1-piperazinyl]methanone] | 18 |  |
| COc1ccccc1-c1ccc(C(=O)N2Cc3ccc(C(=O)N(C)CCc4ccncc4)n3Cc3ccccc32)cc1OC [Example 125, 10-[(2,2′-Dimethoxy-[1,1′-biphenyl]-4-yl)carbonyl]-N-methyl-N-[2-(4-pyridinyl)ethyl]-10,11-dihydro-5H-pyrrolo[2,1-c][1,4]benzodiazepine-3-carboxamide] | -10 |  |
| COc1ccccc1-c1ccc(C(=O)N2Cc3ccc(C(=O)N(C)CCc4ccncc4)n3Cc3ccccc32)cc1C [Example 126, 10-[(2′-Methoxy-2-methyl-[1,1′-biphenyl]-4-yl)carbonyl]-N-methyl-N-[2-(4-pyridinyl)ethyl]-10,11-dihydro-5H-pyrrolo[2,1-c][1,4]benzodiazepine-3-carboxamide] | 5 |  |
| Cc1ccccc1-c1ccc(C(=O)N2Cc3ccc(C(=O)N(C)CCc4ccncc4)n3Cc3ccccc32)cc1C [Example 127, 10-[(2,2′-Dimethyl-[1,1′-biphenyl]-4-yl)carbonyl]-N-methyl-N-[2-(4-pyridinyl)ethyl]-10,11-dihydro-5H-pyrrolo[2,1-c][1,4]benzodiazepine-3-carboxamide] | 15 |  |
